Source: patent publication US20250230165A1, “HETEROCYCLIC COMPOUNDS FOR USE IN THE TREATMENT OF CANCER” (ARTIOS PHARMA LIMITED, priority 2021, published 2025)

Target: T1, Human Polθ polymerase domain (aa1820-2590) (Homo sapiens, UniProt O75417)
T1 construct: Human Polθ polymerase domain (aa1820-2590) was expressed in E. coli; made in house; host or cells: E. coli
T1 sequence (O75417 1820-2590): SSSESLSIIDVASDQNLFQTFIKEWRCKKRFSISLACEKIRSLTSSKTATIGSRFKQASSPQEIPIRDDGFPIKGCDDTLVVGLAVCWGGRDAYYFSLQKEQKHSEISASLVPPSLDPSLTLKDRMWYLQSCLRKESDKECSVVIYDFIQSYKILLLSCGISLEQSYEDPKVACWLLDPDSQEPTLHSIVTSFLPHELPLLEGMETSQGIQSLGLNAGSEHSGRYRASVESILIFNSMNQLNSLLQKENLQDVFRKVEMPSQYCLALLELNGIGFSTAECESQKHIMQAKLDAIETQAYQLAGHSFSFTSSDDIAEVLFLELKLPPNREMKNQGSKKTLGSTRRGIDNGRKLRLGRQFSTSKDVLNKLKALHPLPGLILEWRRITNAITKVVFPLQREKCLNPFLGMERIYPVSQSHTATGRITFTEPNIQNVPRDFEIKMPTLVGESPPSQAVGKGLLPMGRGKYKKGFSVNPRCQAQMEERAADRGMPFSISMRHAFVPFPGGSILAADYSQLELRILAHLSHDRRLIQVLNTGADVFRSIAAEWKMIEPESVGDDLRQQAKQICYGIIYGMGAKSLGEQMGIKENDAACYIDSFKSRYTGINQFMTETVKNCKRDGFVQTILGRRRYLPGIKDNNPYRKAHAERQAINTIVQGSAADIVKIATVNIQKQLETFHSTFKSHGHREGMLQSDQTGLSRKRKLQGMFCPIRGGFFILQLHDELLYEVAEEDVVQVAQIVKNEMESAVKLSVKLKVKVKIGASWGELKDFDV
Assay: Polθ Polymerase Domain Kinact/KI Assay (PicoGreen)
Format: biochemical
Settings: 0.8 nM Polθ, 100 nM DNA substrate, kobs vs [I] fit for 2-step covalent inhibitor
Procedure: Polθ Polymerase Domain Kinact/KI Assay
A PicoGreen assay was used to measure the Kinact and KI values of covalent compounds that inhibit the activity of Polθ in vitro.
Human Polθ polymerase domain (aa1820-2590) was expressed in E. coli, purified, aliquoted and stored at −80° C. until required. Polθ substrate was generated from a 1.2:1 mix of DNA II Short to DNA II Long to give a final concentration of […] substrate in annealing buffer (20 mM Tris pH 7.5, 50 mM NaCl). The substrate was heated in […] aliquots to 95° C. in a heating block for 5 min before the heating block switched off, the reaction left to cool to rt and stored at −20° C. until required.
Assay measurements were performed with 1× buffer comprising 25 mM Tris pH 7.5, 12.5 mM NaCl, […], 5% (v/v) glycerol, 0.01% v/v Triton x-100, 0.1 mg/ml BSA, 1 mM DTT. Test compounds were prepared by dilution in 100% DMSO to give a 12 μM intermediate stock of each (100× final top concentration). 100 nL of 23×1:1.5-fold serial dilutions and a DMSO only control were dispensed using the Tecan dispenser into Greiner 384 well black low volume plates (product code 784076). DMSO concentration was maintained at 1% of the final assay volume by back filling with DMSO.
2× Working stock of substrate (200 nM of DNA substrate and […] dNTPs) and enzyme ([…] PolΘ) were made up in assay buffer. 5 μL/well of both enzyme and substrate 2× solutions were dispensed using a Tempest dispenser (Formulatrix) into assay plates that had been pre-dispensed with compound to give a final assay concentration of 100 nM DNA substrate, […] dNTPs and 0.8 nM Polθ. To stop the reaction, […] of a solution containing 25 mM Tris-HCl pH 7.5 and 20 mM EDTA was added at […] (t=0, 2.5, 5, 7.5, 10, 12.5, 15, 20, 25, 30, 35, 40, 45, 50, 55 and 60 min) using the Tempest's time delay function. The plates were covered during the time course to prevent evaporation. After completing the assay, 5 μL of detection reagent (25 mM Tris-HCl pH 7.5 and 2.5% (v/v) PicoGreen) was dispensed into the wells using a Tempest liquid handler (Formulatrix) and plates subsequently read on the CLARIOstar Plus (BMG Labtech) using the default optical settings for fluorescein and the auto gain/focus settings.
All data analysis was carried out using GraphPad Prism V.8 (GraphPad Software Inc, San Diego, CA) Time course data for each inhibitor concentration was fitted to equation 1 to determine kobs values.^1 Any time points where the control (DMSO alone) reaction was no longer linear were excluded from the analysis. 1) Evaluation of Enzyme Inhibitors in Drug Discovery (Ch9), R. A Copeland, Wiley, 2nd Edition 2013.
A secondary plot of kobs vs [I] is used to determine the Kinact and KI parameters (for a 2-step covalent inhibitor) by fitting to equation 2.^1

Molecule | Kinact/Kl [M⁻¹ s⁻¹]
C=CC(=O)N1Cc2cc(CN3C[C@H]4CC(=O)N(c5cc(C(F)(F)F)cc(C)n5)[C@@H]4C(=O)N(C)c4cccc(Cl)c43)cnc2C1CO (single isomer, unassigned) [Example 230] | 1.01e+06
Cc1cc(C(F)(F)F)cc(N2C(=O)C[C@@H]3CN(CCCCNC(=O)/C=C/CN(C)C)c4c(Cl)cccc4N(C)C(=O)[C@H]32)n1 [Example 252, (E)-N-(4-((3aR,11aS)-6-chloro-10-methyl-1-(6-methyl-4-(trifluoromethyl)pyridin-2-yl)-2,11-dioxo-1,2,3,3a,4,10,11,11a-octahydro-5H-benzo[b]pyrrolo[2,3-f][1,4]diazocin-5-yl)butyl)-4-(dimethylamino)but-2-enamide] | 1.19e+06
C=CC(=O)N1CC(n2cnc(CN3C[C@H]4CC(=O)N(c5cc(C(F)(F)F)cc(C)n5)[C@@H]4C(=O)N(C)c4cccc(F)c43)n2)C1 [Example 123, (3aR,11aS)-5-((1-(1-acryloylazetidin-3-yl)-1H-1,2,4-triazol-3-yl)methyl)-6-fluoro-10-methyl-1-(6-methyl-4-(trifluoromethyl)pyridin-2-yl)-1,3a,4,5,10,11a-hexahydro-2H-benzo[b]pyrrolo[2,3-f][1,4]diazocine-2,11(3H)-dione] | 270000
C=CC(=O)N1CCc2c(ncn2CCN2C[C@H]3CC(=O)N(c4cc(C(F)(F)F)cc(C)n4)[C@@H]3C(=O)N(C)c3cccc(F)c32)C1 [Example 49, (3aR,11aS)-5-(2-(5-acryloyl-4,5,6,7-tetrahydro-1H-imidazo[4,5-c]pyridin-1-yl)ethyl)-6-fluoro-10-methyl-1-(6-methyl-4-(trifluoromethyl)pyridin-2-yl)-1,3a,4,5,10,11a-hexahydro-2H-benzo[b]pyrrolo[2,3-f][1,4]diazocine-2,11(3H)-dione] | 340000
C=CC(=O)N1Cc2nc(CN3C[C@H]4CC(=O)N(c5cc(C(F)(F)F)cc(C)n5)[C@@H]4C(=O)N(C)c4cccc(C)c43)n(CC)c2C1 [Example 314, (3aR,11aS)-5-((5-acryloyl-1-ethyl-1,4,5,6-tetrahydro-pyrrolo[3,4-d]imid-azol-2-yl)methyl)-6,10-dimethyl-1-(6-methyl-4-(trifluoro-methyl)pyridin-2-yl)-1,3a,4,5,10,11a-hexahydro-2H-benzo[b]pyrrolo [2,3-f][1,4]diazo-cine-2,11(3H)-dione] | 1.74e+06
C=CC(=O)N1CC(N(C)CCCN2C[C@H]3CC(=O)N(c4cc(C(F)(F)F)cc(C)n4)[C@@H]3C(=O)N(C)c3cccc(C)c32)C1 [Example 205, (3aR,11aS)-5-(3-((1-acryloylazetidin-3-yl)(methyl)amino)propyl)-6,10-dimethyl-1-(6-methyl-4-(trifluoromethyl)pyridin-2-yl)-1,3a,4,5,10,11a-hexahydro-2H-benzo[b]pyrrolo [2,3-f][1,4]diazocine-2,11(3H)-dione] | 1.67e+06
C=CC(=O)N1CCn2nc(CN3C[C@H]4CC(=O)N(c5cc(C(F)(F)F)cc(C)n5)[C@@H]4C(=O)N(C)c4cccc(C)c43)nc2C1 [Example 202, (3aR,11aS)-5-((7-acryloyl-5,6,7,8-tetrahydro-[1,2,4]triazolo [1,5-a]pyrazin-2-yl)methyl)-6,10-dimethyl-1-(6-methyl-4-(trifluoromethyl)pyridin-2-yl)-1,3a,4,5,10,11a-hexahydro-2H-benzo[b]pyrrolo [2,3-f][1,4]diazocine-2,11(3H)-dione] | 5.56e+06
C=CC(=O)N1CCn2nc(CN3C[C@H]4CC(=O)N(c5cc(C(F)(F)F)cc(C)n5)[C@@H]4C(=O)N(C)c4cccc(C)c43)cc2C1 [Example 173, (3aR,11aS)-5-((5-acryloyl-4,5,6,7-tetrahydropyrazolo [1,5-a]pyrazin-2-yl)methyl)-6,10-dimethyl-1-(6-methyl-4-(trifluoro-methyl)pyridin-2-yl)-1,3a,4,5,10, 11a-hexahydro-2H-benzo[b]pyrrolo [2,3-f][1,4]diazo-cine-2,11(3H)-dione] | 2.92e+06
(3aR,11aS)-5-(2-((3S/R,9aS/R)-8-acryloyl-3-methyl-4-oxooctahydro-2H-pyrazino[1,2-a]pyrazin-2-yl)ethyl)-6-fluoro-10-methyl-1-(6-methyl-4-(trifluoromethyl)pyridin-2-yl) 1,3a,4,5,10,11a-hexahydro-2H-benzo[b]pyrrolo[2,3-f][1,4]diazocine-2,11(3H)-dione [Example 110] | 1e+06
Cc1cc(C(F)(F)F)cc(N2C(=O)C[C@@H]3CN(Cc4ccc5c(c4)CN(C(=O)/C=C/CN(C)C)C5)c4c(C)cccc4N(C)C(=O)[C@H]32)n1 [Example 176, (3aR,11aS)-5-((2-((E)-4-(dimethyl-amino)but-2-enoyl)isoindolin-5-yl)methyl)-6,10-dimethyl-1-(6-methyl-4-(tri-fluoromethyl)pyr-idin-2-yl)-1,3a,4,5,10,11a-hexa-hydro-2H-benzo [b]pyrrolo[2,3-f] [1,4]diazocine-2,11(3H)-dione] | 1.37e+06
C=C(CN(C)C)C(=O)NC12CC(CN3C[C@H]4CC(=O)N(c5cc(C(F)(F)F)cc(C)n5)[C@@H]4C(=O)N(C)c4cccc(Cl)c43)(C1)C2 [Example 164, N-(3-(((3aR,11aS)-6-chloro-10-methyl-1-(6-methyl-4-(trifluoromethyl)pyridin-2-yl)-2,11-dioxo-1,2,3,3a,4, 10,11,11a-octahydro-5H-benzo[b]pyrrolo[2,3-f][1,4]diazocin-5-yl)methyl)bicyclo[1.1.1]pentan-1-yl)-2-((dimethylamino)methyl) acrylamide] | 2.38e+06
C=CC(=O)Nc1ccc(CN2C[C@H]3CC(=O)N(c4cc(C(F)(F)F)cc(C)n4)[C@@H]3C(=O)N(C)c3cccc(C)c32)cc1 [Example 87, N-(4-(((3aR,11aS)-6,10-dimethyl-1-(6-methyl-4-(trifluoromethyl)pyridin-2-yl)-2,11-dioxo-1,2,3,3a,4,10,11,11a-octahydro-5H-benzo[b]pyrrolo[2,3-f][1,4]diazocin-5-yl)methyl)phenyl)acrylamide] | 810000
C=CC(=O)N1Cc2nc(CN3C[C@H]4CC(=O)N(c5cc(C(F)(F)F)cc(C)n5)[C@@H]4C(=O)N(C)c4cccc(C)c43)oc2C1 [Example 316, (3aR,11aS)-5-((5-acryloyl-5,6-di-hydro-4H-pyrrolo [3,4-d]oxazol-2-yl)-methyl)-6,10-dimethyl-1-(6-meth-yl-4-(trifluorometh-yl)pyridin-2-yl)-1,3a,4,5,10,11a-hexahydro-2H-benzo[b]pyrrolo [2,3-f][1,4]diazo-cine-2,11(3H)-dione] | 610000
